Data taken from patent US20250304644A1, “PEPTIDES TRIPLE AGONISTS OF GIP, GLP-1 AND GLP-2” (BAINAN BIOTECH APS, priority 2021, published 2025).
Read-outs that look alike come from different tables or passages of the source. *1 amine or outer side, *2 acyl side, *3 side chain or, on linkers, in order; H or OH if unused. Where a SMILES comes first, the peptide text is derived from it. Where no end group is shown, it is not given here. Side-chain parts run from the residue outwards. [ ]: non-standard residue; d: D form. The star is where a group is joined. C18 diacid = O=C(O)CCCCCCCCCCCCCCCCC(=O)*; γGlu = O=C(O)[C@H](CCC(=O)[*:2])N[*:1]; AEEA = NCCOCCOCC(=O)O; Aib = CC(C)(N)C(=O)O

T1: human SNP-tagged GLP-2R (Homo sapiens, UniProt O95838)
T1 construct: expressed in transfected cells; host or cells: HEK293A
T1 sequence (O95838 1-553): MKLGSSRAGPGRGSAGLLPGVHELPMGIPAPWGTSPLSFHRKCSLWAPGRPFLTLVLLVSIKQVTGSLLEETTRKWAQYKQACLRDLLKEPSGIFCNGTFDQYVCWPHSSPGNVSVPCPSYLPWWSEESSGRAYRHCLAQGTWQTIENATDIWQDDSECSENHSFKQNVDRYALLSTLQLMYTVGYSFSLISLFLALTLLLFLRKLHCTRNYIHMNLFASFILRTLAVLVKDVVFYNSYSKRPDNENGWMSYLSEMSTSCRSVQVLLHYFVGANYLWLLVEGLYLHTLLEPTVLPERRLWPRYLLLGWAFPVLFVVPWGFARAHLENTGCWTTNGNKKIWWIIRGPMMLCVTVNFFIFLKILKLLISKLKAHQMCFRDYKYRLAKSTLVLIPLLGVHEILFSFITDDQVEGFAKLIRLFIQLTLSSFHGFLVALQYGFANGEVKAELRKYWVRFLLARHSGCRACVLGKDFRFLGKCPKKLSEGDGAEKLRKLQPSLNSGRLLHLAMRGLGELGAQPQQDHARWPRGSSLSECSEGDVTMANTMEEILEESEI

T2: human GIPR (Homo sapiens, UniProt P48546)
T2 construct: host or cells: COS-7
T2 sequence (P48546 22-466): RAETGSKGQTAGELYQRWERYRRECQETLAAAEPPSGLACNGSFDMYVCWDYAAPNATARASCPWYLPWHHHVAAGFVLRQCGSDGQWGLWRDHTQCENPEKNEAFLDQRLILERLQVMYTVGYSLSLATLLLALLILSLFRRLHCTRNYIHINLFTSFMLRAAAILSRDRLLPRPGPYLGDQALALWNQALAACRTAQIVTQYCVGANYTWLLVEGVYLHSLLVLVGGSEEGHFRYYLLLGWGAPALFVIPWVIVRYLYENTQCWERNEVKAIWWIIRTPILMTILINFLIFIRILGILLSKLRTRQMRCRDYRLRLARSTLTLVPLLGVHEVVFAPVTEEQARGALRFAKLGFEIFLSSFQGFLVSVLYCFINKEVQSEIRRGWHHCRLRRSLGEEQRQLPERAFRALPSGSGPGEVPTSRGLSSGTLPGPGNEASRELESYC

T3: human GLP-2R (Homo sapiens, UniProt O95838)
T3 construct: host or cells: COS-7
T3 sequence (O95838 1-553): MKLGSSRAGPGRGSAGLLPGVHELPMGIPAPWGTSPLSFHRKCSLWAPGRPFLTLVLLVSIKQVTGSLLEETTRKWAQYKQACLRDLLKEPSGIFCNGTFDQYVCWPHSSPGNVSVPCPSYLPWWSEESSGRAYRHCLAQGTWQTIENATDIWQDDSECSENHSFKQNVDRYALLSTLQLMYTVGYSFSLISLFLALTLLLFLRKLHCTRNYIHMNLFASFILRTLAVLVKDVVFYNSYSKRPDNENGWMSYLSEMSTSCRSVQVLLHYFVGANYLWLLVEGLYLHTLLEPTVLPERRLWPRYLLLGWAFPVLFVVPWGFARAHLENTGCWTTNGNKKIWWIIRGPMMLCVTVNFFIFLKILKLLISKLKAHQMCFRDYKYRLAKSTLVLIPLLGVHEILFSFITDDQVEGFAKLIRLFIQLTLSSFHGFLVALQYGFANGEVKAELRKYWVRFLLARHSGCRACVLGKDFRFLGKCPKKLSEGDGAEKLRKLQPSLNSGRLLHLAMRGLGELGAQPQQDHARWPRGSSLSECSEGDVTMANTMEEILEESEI

T4: human SNAP-tagged GIPR (Homo sapiens, UniProt P48546)
T4 construct: host or cells: HEK293A
T4 sequence (P48546 22-466): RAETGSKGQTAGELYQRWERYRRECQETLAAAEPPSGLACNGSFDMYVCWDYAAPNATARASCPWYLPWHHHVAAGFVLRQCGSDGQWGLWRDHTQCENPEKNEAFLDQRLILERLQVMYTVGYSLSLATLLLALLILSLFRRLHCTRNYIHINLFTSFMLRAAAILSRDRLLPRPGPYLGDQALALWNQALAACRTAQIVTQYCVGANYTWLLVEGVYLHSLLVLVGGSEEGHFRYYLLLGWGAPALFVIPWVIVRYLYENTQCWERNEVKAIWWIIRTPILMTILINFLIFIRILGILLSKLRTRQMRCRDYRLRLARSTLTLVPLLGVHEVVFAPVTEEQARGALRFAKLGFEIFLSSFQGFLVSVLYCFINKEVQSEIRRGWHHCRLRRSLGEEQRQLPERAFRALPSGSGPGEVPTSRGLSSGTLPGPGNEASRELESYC

T5: Human N-terminally SNAP-tagged GIPR (human, UniProt P48546 22-466, SNAP tag labeled with Tag-Lite SNAP-Lumi4-Tb)
T5 sequence (looked up): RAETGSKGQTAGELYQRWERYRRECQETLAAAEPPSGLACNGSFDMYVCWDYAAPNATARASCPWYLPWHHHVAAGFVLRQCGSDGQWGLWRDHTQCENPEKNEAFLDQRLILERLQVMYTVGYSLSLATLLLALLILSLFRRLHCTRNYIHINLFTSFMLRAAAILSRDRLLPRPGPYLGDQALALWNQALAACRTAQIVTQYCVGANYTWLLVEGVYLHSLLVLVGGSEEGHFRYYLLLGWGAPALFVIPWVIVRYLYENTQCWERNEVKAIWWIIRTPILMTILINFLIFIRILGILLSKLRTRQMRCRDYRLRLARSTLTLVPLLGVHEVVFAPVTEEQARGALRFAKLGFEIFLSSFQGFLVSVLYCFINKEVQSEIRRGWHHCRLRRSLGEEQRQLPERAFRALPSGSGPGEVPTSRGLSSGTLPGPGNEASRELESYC


Key:
[1] = target: T1, human SNP-tagged GLP-2R; experiment: Receptor internalization assay, HEK293A cells expressing human SNAP-tagged GLP-2R; assay type: cell-based; conditions: AUC of sigmoid curves up to 1 μM; 60 minutes at 37° C.
[2] = target: T2, human GIPR; experiment: cAMP assay (HitHunter) in transiently transfected COS-7 cells expressing human GIPR; assay type: cell-based; conditions: for Emax: COS-7, normalized to highest concentration of the endogenous ligand, read-out: Efficacy GIPR (Emax); for EC50: cAMP, COS-7 cells, human GIPR
[3] = target: T3, human GLP-2R; experiment: cAMP assay (HitHunter) in transiently transfected COS-7 cells expressing human GLP-2R; assay type: cell-based; conditions: for Emax: COS-7, normalized to highest concentration of the endogenous ligand, read-out: Efficacy GLP-2R (Emax)
[4] = target: T4, human SNAP-tagged GIPR; experiment: Receptor internalization assay, HEK293A cells expressing human SNAP-tagged GIPR; assay type: cell-based; conditions: for Absolute hGIPR internalization (AUC): AUC of sigmoid curves up to 1 μM, 60 minutes at 37° C.; for GIPR internalization (in words): compared to native GIP; for Relative hGIPR internalization (%): relative to hGIP 1-42 = 100
[5] = target: T6, human GLP-1R (Homo sapiens, UniProt P43220); experiment: cAMP assay (HitHunter) in transiently transfected COS-7 cells expressing human GLP-1R; assay type: cell-based; conditions: for Emax: COS-7, normalized to highest concentration of the endogenous ligand, read-out: Efficacy GLP-1R (Emax); for EC50: cAMP, COS-7 cells, human GLP-1R
T6 construct: host or cells: COS-7
T6 sequence (P43220 24-463): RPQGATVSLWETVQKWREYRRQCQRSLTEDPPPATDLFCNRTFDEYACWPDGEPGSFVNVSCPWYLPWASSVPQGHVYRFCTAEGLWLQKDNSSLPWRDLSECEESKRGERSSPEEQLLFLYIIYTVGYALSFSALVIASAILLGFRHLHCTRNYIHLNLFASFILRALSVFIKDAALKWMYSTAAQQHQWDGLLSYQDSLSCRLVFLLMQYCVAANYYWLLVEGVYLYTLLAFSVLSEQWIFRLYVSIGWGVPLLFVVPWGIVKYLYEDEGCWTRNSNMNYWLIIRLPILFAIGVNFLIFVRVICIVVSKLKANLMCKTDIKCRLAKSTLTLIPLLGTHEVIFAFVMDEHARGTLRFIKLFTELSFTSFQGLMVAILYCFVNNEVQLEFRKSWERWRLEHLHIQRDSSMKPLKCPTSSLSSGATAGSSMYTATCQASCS

[6] = target: T5, Human N-terminally SNAP-tagged GIPR; experiment: cell-based or functional assay

Molecule | Absolute hGLP-2R internalization (AUC) [1] | Emax [2] | Emax [3] | EC50 ([3]; cAMP, COS-7 cells, human GLP-2R, read-out: EC50 (nM) GLP-2R) | Absolute hGIPR internalization (AUC) [4] | Relative hGIPR internalization (%) [4] | Emax [5] | EC50 ([5]; read-out: EC50 (nM) GLP-1R) | EC50 [2] | GLP-2R activation (in words) ([3]; cAMP, fatty acid at C-terminus of 1-33 or 1-34 backbone) | EC50 ([5]; read-out: logEC50 GLP-1R (converted)) | Absolute hGIPR internalization (AUC) [6] | GIPR internalization (in words) [4]
HADGTFTSDYST[Aib]LDKLAARDFINWLIQTKGKKNDWKHNITQK([AEEA-AEEA-γGlu-C18 diacid])-OH [Compound 27] | – | 124% | 85% | 3.2 nM | 9.0 | 24% | 115% | 0.05 nM | – | – | – | – | internalization of the GIPR to a higher extent
HADGTFTSDYSTILDKLAARDFINWLIQTKGKKNDWKHNITQK([AEEA-AEEA-γGlu-C18 diacid])-OH [Compound 26] | – | 106% | 112% | – | 16.4 | 44% | 103% | – | 0.316 nM | – | 0.0398 nM | – | internalization of the GIPR to a higher extent
HXDGTFISDYSTILDNLAARDFINWLIQTKITK (Aib at position 2; K33 acylated with C10, K(C10); C-terminal amide (-NH2)) [Compound 1] | – | – | – | – | – | – | – | – | – | – | – | 5.3 AUC | –

Second part, led by results:

Absolute hGLP-2R internalization (AUC) [1] | Emax [2] | Emax [3] | EC50 ([3]; cAMP, COS-7 cells, human GLP-2R, read-out: EC50 (nM) GLP-2R) | Absolute hGIPR internalization (AUC) [4] | Relative hGIPR internalization (%) [4] | Emax [5] | EC50 ([5]; read-out: EC50 (nM) GLP-1R) | EC50 [2] | GLP-2R activation (in words) ([3]; cAMP, fatty acid at C-terminus of 1-33 or 1-34 backbone) | EC50 ([5]; read-out: logEC50 GLP-1R (converted)) | Absolute hGIPR internalization (AUC) [6] | Molecule | GIPR internalization (in words) [4]
48.6 | – | – | – | – | – | – | – | – | – | – | – | hGLP-1: native human glucagon-like peptide-1, endogenous GLP-1R ligand; which form (1-37, 7-36, 7-37) not stated [reference compound] | –
– | 92% | 94% | – | 8.9 | 24% | 106% | 0.06 nM | 0.631 nM | reduction in GLP-2R activation | – | – | CC[C@H](C)[C@H](NC(=O)[C@H](Cc1ccccc1)NC(=O)[C@H](CC(=O)O)NC(=O)[C@H](CCCNC(=N)N)NC(=O)[C@H](C)NC(=O)[C@H](C)NC(=O)[C@H](CC(C)C)NC(=O)[C@H](CC(N)=O)NC(=O)[C@H](CC(=O)O)NC(=O)[C@H](CC(C)C)NC(=O)[C@@H](NC(=O)[C@@H](NC(=O)[C@H](CO)NC(=O)[C@H](Cc1ccc(O)cc1)NC(=O)[C@H](CC(=O)O)NC(=O)[C@H](CO)NC(=O)[C@@H](NC(=O)[C@H](Cc1ccccc1)NC(=O)[C@@H](NC(=O)CNC(=O)[C@H](CC(=O)O)NC(=O)[C@H](C)NC(=O)[C@@H](N)Cc1c[nH]cn1)[C@@H](C)O)[C@@H](C)O)[C@@H](C)O)[C@@H](C)CC)C(=O)N[C@@H](CC(N)=O)C(=O)N[C@@H](Cc1c[nH]c2ccccc12)C(=O)N[C@@H](CC(C)C)C(=O)N[C@H](C(=O)N[C@@H](CCC(N)=O)C(=O)N[C@H](C(=O)N[C@@H](CCCCN)C(=O)NCC(=O)N[C@@H](CCCCN)C(=O)N[C@@H](CCCCNC(=O)CC[C@H](NC(=O)CCCCCCCCCCCCCCCCC(=O)O)C(=O)O)C(=O)O)[C@@H](C)O)[C@@H](C)CC [Compound 19] (H-HADGTFTSDYSTILDNLAARDFINWLIQTKGKK([γGlu-C18 diacid])-OH; N-terminus assumed) | –
